Experiment [1] has as its system THP-1 derived macrophage cells. As to the kind of experiment: Macrophage polarization by flow cytometry (CD11b, CD80, CD163 MFI). The note with it: saponin 3 µg/mL, 24 h, PMA-differentiated THP-1, mean ± SD, n = 3. The experiment is classed as cell-based, human. Here is the method: To differentiate THP-1 cells into M0-THP-1, cells were seeded at an initial concentration of 1 × 10^6 cells/mL in 6-well plates (Corning, USA) and treated with 15 ng/mL phorbol 12-myristate 13—acetate (PMA, Sigma USA). Then incubate at 5% CO2, 37 °C for 48 h[24]. To evaluate the potential of saponins with/without infectious bronchitis virus (IBV) D274 antigen on macrophage polarization, THP-1 cells were treated with saponins at 3 µg/mL and then incubated for 24 h with or without 4 µL of inactivated IBV D274 antigens (final titer of 1 HA). […] Based on the results of our previous research, the saponin concentration was selected as a non-cytotoxic concentration. At the end of the incubation period, the cells were collected by trypsinization and washed three times with PBS. Following, 1 µL of PE anti-human CD80 (Biolegend, CA), FITC anti-human CD163 (Biolegend, CA), and FITC anti-human CD11b (Biolegend, CA) antibodies were added into the cells pellet and incubated for 45 min at room temperature in the dark. The cells pellets underwent two PBS washes following incubation. Finally, the cells were subsequently analyzed by flow cytometry (BD Accuri, C5). 1 × 10^4 cells were counted for each sample group using flow cytometry. All data are the results of at least three independent experiments carried out in triplicate. Data are presented as mean ± standard error of the mean (SEM) of samples. The untreated stained macrophage cells with anti-human CD80, FITC anti-human CD163, and FITC anti-human CD11b were compared with the results of treated cells to obtain from M0 polarization to M1 and M2 or both.
Figure 2 (a) Saponins without antigen treatment, (b) Saponins treated with antigen. THP-1 cells were treated with 15 ng/ml PMA and 3 µg/ml saponins and 1 HA titer of IBV D274 induced in the saponins with antigen group for 24 h incubation. The macrophage polarization was determined with flow cytometry. Each value represents the mean ± standard deviation of three independents measurements. (P < 0.05*, P < 0.01**, P < 0.001***).
(A flow cytometer gives signals particle by particle.)

Experiment [2] relates to THP-1 originated-macrophage. The experiment in a line: MTT cytotoxicity on THP-1 originated macrophages. Type of experiment: cell-based, human. The note with it: Homo sapiens, THP-1, 48 h, mean ± standard deviation, n = 3, – = Not detected.
Experiment [3] has as its system A549 human lung adenocarcinoma cell line. As to the kind of experiment: MTT cytotoxicity on A549. Type of experiment: cell-based. The note with it: Homo sapiens, A549, 48 h, mean ± standard deviation, n = 3, – = Not detected. As to the method: (§1) The human leukemia monocyte cell line (THP-1), human lung adenocarcinoma cell line (A549), human breast cancer cells (MDA-MB231), human prostate adenocarcinoma cells (PC3), human malignant glioma cell line (U87MG), human cervical gland carcinoma cells (HeLa), human hepatocellular carcinoma cells (HEP-G2) and normal human lung fibroblast cells (CCD-34-LU) as a healthy cell line in our stock used in this study were purchased from American Type Culture Collection (ATCC). THP-1 cells were cultured in Roswell Park Memorial Institute (RPMI 1640) medium and MDA-MB231, PC3, U87 MG, HeLa, HEP-G2, and CCD-34-LU cells cultivated in Dulbecco’s Modified Eagle’s Medium/Nutrient Mixture F-12 (DMEM/F12) (Gibco, USA) medium supplemented with 10% FBS (Gibco, USA), 100U/mL of penicillin 100 µg/mL of streptomycin (Gibco, USA), and 2 mM L-glutamine (Gibco, USA).
(§2) Cytotoxicity of saponins (1–4) and their prosapogenins (2a–4a) were tested against A549, MDA-MB-231, PC-3, U87MG, HeLa, HepG-2 cancer cells and CCD34-Lu healthy cell line using MTT [3-(4,5-dimethylthiazole-2-yl)-2,5-diphenyltetrazolium bromide)] assay (Acros Organics, New Jersey, USA)[11], [23]. For this purpose, 1 × 10^5 cells/mL of all the cell lines were seeded in 96-well plates (Corning, USA) and cultivated in the at 37 °C overnight. After the incubation, the cells were incubated with different concentrations of saponins (50, 5, and 0.5 µg/mL), and doxorubicin (Sigma, USA) (20, 2, and 0.2 µg/mL) for 48 h at 37 °C. Then, the MTT was added as 20 μL (from the stock concentration of 2.5 mg/mL) to all wells and further incubated for 4 h at 37 °C. Following the incubation, the medium was removed and 150 µL DMSO was added to dissolve the formed formazan crystals. After the formazan crystals were completely dissolved, the optical density (OD) was measured at 570 nm with an UV/Vis microplate spectrophotometer (Thermo Fisher Scientific, USA). All data are the results of at least three independent experiments carried out in triplicate. Data are presented as mean ± standard error of the mean (SEM) of samples. The IC50 value was calculated using the GraphPad Prism 8 (USA) program based on the calculated percent viability values and absorbance values. The percentage of viability was determined by Eq. (1):1 %Viablecells=absorbanceoftreatedcells-absorbanceofblank/absorbanceofcontrol-absorbanceofblank×100

The test system of experiment [4] is PC-3 human prostate adenocarcinoma cells. As to the kind of experiment: MTT cytotoxicity on PC-3. The experiment is classed as cell-based. The note with it: Homo sapiens, 48 h, mean ± standard deviation, n = 3, – = Not detected. Here is the method:
as §1, §2

In experiment [5] the test system is MDA-MB-231 human breast cancer cells. The experiment in a line: MTT cytotoxicity on MDA-MB-231. Type of experiment: cell-based. The note with it: Homo sapiens, MDA-MB-231, 48 h, mean ± standard deviation, n = 3, – = Not detected. As to the method:
as §1, §2

In experiment [6] the test system is HeLa human cervical gland carcinoma cells. As to the kind of experiment: MTT cytotoxicity on HeLa. Type of experiment: cell-based. The note with it: Homo sapiens, HeLa, 48 h, mean ± standard deviation, n = 3, – = Not detected. Here is the method:
as §1, §2

Experiment [7] deals with CCD-34Lu normal human lung fibroblast cells. The experiment in a line: MTT cytotoxicity on CCD-34Lu healthy cells. Type of experiment: cell-based. The note with it: Homo sapiens, Fibroblast, 48 h, mean ± standard deviation, n = 3, – = Not detected. Here is the method: as §1, §2
Experiment [8] relates to U87MG human malignant glioma cell line. As to the kind of experiment: MTT cytotoxicity on U87MG. The experiment is classed as cell-based. The note with it: Homo sapiens, U-87 MG, 48 h, mean ± standard deviation, n = 3, – = Not detected. Here is the method: as §1, §2
Experiment [9] deals with HepG-2 human hepatocellular carcinoma cells. The experiment in a line: MTT cytotoxicity on HepG-2. The experiment is classed as cell-based. The note with it: Homo sapiens, HepG2, 48 h, mean ± standard deviation, n = 3, – = Not detected. Here is the method: as §1, §2
Where [10] appears, read: with inactivated IBV D274 antigen (1 HA).

The structures appear in SMILES notation. Marks after values point to notes of the source that are not given here.

With `C[C@@H]1O[C@@H](O[C@H]2[C@H](O[C@H]3CC[C@@]4(C)C(CC[C@]5(C)C4CC=C4C6CC(C)(C)CC[C@]6(C(=O)O)CC[C@]45C)[C@]3(C)CO)O[C@H](CO)[C@H](O)[C@@H]2O)[C@H](O)[C@H](O)[C@H]1O` (stereo partly drawn) [Compound 1, 3-O-α-L-rhamopyranosyl-(1 → 2)-β-D-galactopyranosyl-hederagenin], the “MFI of CD 11b (M0 marker)” value in experiment [1] (setting [10]) is 31,644.21 ± 849.30; in [1] (without antigen) it was 28,644.50 ± 849.33. Besides, the “MFI of CD80 (M1 marker)” value is listed as 4062.43 ± 906.36 in experiment [1] (setting [10]) and 4,536.00 ± 239.19 in [1] (without antigen). The “MFI of CD163 (M2 marker)” value in experiment [1] (without antigen) was 6,400.83 ± 196.02*. Moreover, the IC50 – broadly, the midpoint of a concentration-inhibition curve – in experiment [2] is 27.6 ± 0.52 µM; in [3], 8.59 ± 0.19 µM; in [4], over 64 µM; in [5], 15.1 ± 1.02 µM; in experiment [6] it was 48.1 ± 4.56 µM; in [7], over 64 µM. Besides, the half-inhibitory concentration (IC50) in experiment [8] and in experiment [9] was over 64 µM throughout.

Take `C[C@@H]1O[C@@H](O[C@H]2[C@H](O[C@H]3CC[C@@]4(C)C(CC[C@]5(C)C4CC=C4C6CC(C)(C)CC[C@]6(C(=O)O[C@@H]6O[C@H](CO[C@@H]7O[C@H](CO)[C@@H](O)[C@H](O)[C@H]7O)[C@@H](O)[C@H](O)[C@H]6O)CC[C@]45C)[C@]3(C)CO)OC[C@@H](O)[C@@H]2O)[C@H](O)[C@H](O)[C@H]1O` (stereo partly drawn) [Compound 3, 3-O-α-L-rhamnopyranosyl-(1 → 2)-β-D-xylopyranosyl-hederagenin-28-O-β-D-glucopyranosyl-(1 → 6)-β-D-glucopyranosyl ester]: the “MFI of CD 11b (M0 marker)” value in [1] (setting [10]) is 29,545.10 ± 906.36; in [1] (without antigen) it was 28,092.69 ± 1435.47. For the same compound, the “MFI of CD80 (M1 marker)” value is recorded as 4564.51 ± 138.81 in [1] (setting [10]) and 4,549.73 ± 913.74 in [1] (without antigen). Further, the “MFI of CD163 (M2 marker)” value in [1] (setting [10]) is 8303.34 ± 245.1**; in [1] (without antigen), 6,655.82 ± 206.67*. In addition, the concentration for half-maximal inhibition (IC50) in experiment [2], in [3], in experiment [4], in experiment [5], in [6] and in [7] was over 46.5 µM throughout. Besides, the IC50 in experiment [8] and in experiment [9] was over 46.5 µM each time.

In the case of `COc1cccc2c1C(=O)c1c(O)c3c(c(O)c1C2=O)C[C@@](O)(C(=O)CO)C[C@@H]3O[C@H]1C[C@H](N)[C@H](O)[C@H](C)O1` [Doxorubicin, doxorubicin, reference compound], the IC50 was 6.84 ± 0.18 µM in experiment [2]; 40.01 ± 0.02 µM in experiment [3]; 4.23 ± 0.02 µM in experiment [4]; 70 ± 0.02 µM in experiment [5]; 23.95 ± 0.02 µM in experiment [6]; 33.98 ± 0.02 µM in experiment [7]. The IC50 in experiment [8] is 11.09 ± 0.02 µM; in [9] it was 36.85 ± 0.02 µM.

Source of the values: publication PMC10560666, “Four new triterpene saponins from Cephalaria speciosa and their potent cytotoxic and immunomodulatory activities” (Scientific Reports, 2023).
